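Growth conditions: 96-well plates. Treatment: test compound, 48 hours, 5 concentrations. Analysis: linear interpolation between bracketing concentrations; unreached endpoints set to highest concentration. Abbreviation: GI50, concentration required for 50% inhibition of growth.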 Active and inactive are the calls of the source. Cut-off read from the data, not from the text of the source: active = GI50 up to about 1.1 µM and inactive = higher.
Assays:
Test in all cases: NCI-60 cell line screen, 48 h
CCRF-CEM = tested on: CCRF-CEM
EKVX = tested on: EKVX
HCT-15 = tested on: HCT-15
K562 = tested on: K562
MDA-MB-435 = tested on: MDA-MB-435
MOLT-4 = tested on: MOLT-4
NCI-H226 = tested on: NCI-H226
NCI-H23 = tested on: NCI-H23
OVCAR-3 = tested on: OVCAR-3
OVCAR-8 = tested on: OVCAR-8
SF-268 = tested on: SF-268
SK-MEL-5 = tested on: SK-MEL-5
SK-OV-3 = tested on: SK-OV-3
SN12C = tested on: SN12C
SR = tested on: SR
TK-10 = tested on: TK-10
U-251 = tested on: U-251
UACC-62 = tested on: UACC-62
UO-31 = tested on: UO-31
SK-MEL-2 = tested on: SK-MEL-2

Row | SMILES | GI50 (CCRF-CEM) | GI50 (EKVX) | GI50 (HCT-15) | GI50 (K562) | GI50 (MDA-MB-435) | GI50 (MOLT-4) | GI50 (NCI-H226) | GI50 (NCI-H23) | GI50 (OVCAR-3) | GI50 (OVCAR-8) | GI50 (SF-268) | GI50 (SK-MEL-5) | GI50 (SK-OV-3) | GI50 (SN12C) | GI50 (SR) | GI50 (TK-10) | GI50 (U-251) | GI50 (UACC-62) | GI50 (UO-31) | GI50 (SK-MEL-2)
1 | Cc1c2c(n3c(nc4ccccc43)c1C#N)NCC2 | > 10 µM (inactive) | > 10 µM (inactive) | > 10 µM | > 10 µM (inactive) | > 10 µM (inactive) | > 10 µM (inactive) | > 10 µM (inactive) | > 10 µM (inactive) | > 10 µM (inactive) | > 10 µM (inactive) | > 10 µM (inactive) | > 10 µM (inactive) | > 10 µM (inactive) | > 10 µM (inactive) | > 10 µM (inactive) | > 10 µM (inactive) | > 10 µM (inactive) | > 10 µM (inactive) | > 10 µM (inactive) | 
2 | O=C(O)/C=C\C(=O)Nc1ccccn1 | > 100 µM (inactive) | > 100 µM (inactive) | > 100 µM | > 100 µM (inactive) | > 100 µM (inactive) | > 100 µM (inactive) | > 100 µM (inactive) | > 100 µM (inactive) | > 100 µM (inactive) | > 100 µM (inactive) | > 100 µM (inactive) | > 100 µM (inactive) | > 100 µM (inactive) | > 100 µM (inactive) | > 100 µM (inactive) |  | > 100 µM (inactive) | > 100 µM (inactive) | > 100 µM (inactive) | > 100 µM (inactive)
3 | Cc1cc2c(O)c(c1)COCc1cc(C)cc(c1O)COCc1cc(C)cc(c1O)COC2 | 32.1 µM (inactive) | > 100 µM (inactive) | > 100 µM | > 100 µM (inactive) | > 100 µM (inactive) | > 100 µM (inactive) | > 100 µM (inactive) | > 100 µM (inactive) | > 100 µM (inactive) | 50.1 µM (inactive) | > 100 µM (inactive) |  | > 100 µM (inactive) | > 100 µM (inactive) | 91 µM (inactive) |  | > 100 µM (inactive) | > 100 µM (inactive) | > 100 µM (inactive) | > 100 µM (inactive)
4 | COC(=N)C12C(N)=NC(OC)(OC)C1(C#N)C21C(=O)N(c2ccccc2)N=C1C (configuration not stated) | 36.2 µM (inactive) | > 100 µM (inactive) | > 100 µM | > 100 µM (inactive) | > 100 µM (inactive) | > 100 µM (inactive) | > 100 µM (inactive) | > 100 µM (inactive) | > 100 µM (inactive) | > 100 µM (inactive) | > 100 µM (inactive) |  | > 100 µM (inactive) | > 100 µM (inactive) | 37.6 µM (inactive) |  | > 100 µM (inactive) | > 100 µM (inactive) | > 100 µM (inactive) | > 100 µM (inactive)
5 | O=c1[nH]c2ccc(Cl)cc2o1 | > 100 µM (inactive) | 26.7 µM (inactive) | > 100 µM | > 100 µM (inactive) | > 100 µM (inactive) | > 100 µM (inactive) | > 100 µM (inactive) | > 100 µM (inactive) | > 100 µM (inactive) | > 100 µM (inactive) | > 100 µM (inactive) | > 100 µM (inactive) | > 100 µM (inactive) | > 100 µM (inactive) | > 100 µM (inactive) | > 100 µM (inactive) | > 100 µM (inactive) | > 100 µM (inactive) | > 100 µM (inactive) | 
6 | N#C/C(=C/N1C(=O)/C(=C/c2ccc([N+](=O)[O-])cc2)SC1=S)c1nc2ccccc2s1 | 24.5 µM (inactive) | 18.4 µM (inactive) | 21.6 µM | 17.5 µM (inactive) | 29.5 µM (inactive) |  | 12.2 µM (inactive) | 20.7 µM (inactive) | 3.48 µM (inactive) | 37.9 µM (inactive) | 24.7 µM (inactive) | 11.4 µM (inactive) | 15.9 µM (inactive) | 23.5 µM (inactive) | 25.6 µM (inactive) | 26.9 µM (inactive) | 15.2 µM (inactive) | 4.42 µM (inactive) | 16.1 µM (inactive) | 16.7 µM (inactive)
